Results reported in ChEMBL document CHEMBL4177599, “The antitubercular activity of various nitro(triazole/imidazole)-based compounds” (Bioorg Med Chem, 2017).
≈ marks a conversion by molar mass, not a printed value.

Experiments:
[1] = tested on: Mycobacterium tuberculosis; assay: Antitubercular activity against Mycobacterium tuberculosis H37Rv ATCC 27294 after 5 days under aerobic condition; assay type: functional, organism-based; settings: for IC50 / IC90 / MIC: H37Rv ATCC 27294, 120 h
L6 = assay: Cytotoxicity against rat L6 cells after 2 days by CellTiter-Glo luminescent cell viability assay; assay type: ADME, cell-based; settings: L6, 48 h
[2] = tested on: Mycobacterium tuberculosis; assay: Bactericidal activity against Mycobacterium tuberculosis H37Rv ATCC 27294 assessed as concentration required for 2 log kill after 21 days under aerobic condition by colony forming assay; assay type: functional; settings: for MBC: H37Rv ATCC 27294, 504 h
[3] = tested on: Mycobacterium tuberculosis; assay: Antitubercular activity against Mycobacterium tuberculosis H37Rv ATCC 27294 after 10 days under low oxygen condition followed by incubation under aerobic condition for 28 hrs by LORA; assay type: functional, organism-based
Vero = assay: Cytotoxicity against African green monkey Vero cells after 2 days by CellTiter-Glo luminescent cell viability assay; assay type: ADME, cell-based; settings: Chlorocebus sabaeus, 48 h
HepG2 = assay: Cytotoxicity against human HepG2 cells at 100 uM after 3 days by CellTiter-Glo luminescent cell viability assay; assay type: cell-based; settings: HepG2, 72 h
[4] = tested on: Mycobacterium tuberculosis; assay: Antitubercular activity against luxABCDE expressing Mycobacterium tuberculosis H37Rv infected in human THP1 cells measured after 3 days by luminescence assay; assay type: functional, organism-based; settings: THP-1, 72 h
THP-1 = assay: Cytotoxicity against human THP1 cells after 3 days by luminescence assay; assay type: cell-based; settings: THP-1, 72 h
[5] = Protein binding in human plasma at 5 uM after 4 hrs by LC-MS/MS analysis
[6] = Half life in human liver S9 microsomes at 1 uM in absence of NADPH by LC-MS/MS analysis
[7] = Solubility of compound in Middlebrook 7H9 broth media at pH 6.4 at 200 uM after 90 mins by UV-VIS spectrophotometric method; assay type: physicochemical; settings: buffer, pH 6.4, 1.5 h
[8] = Half life in human liver S9 microsomes at 1 uM in presence of NADPH by LC-MS/MS analysis
in vitro [9] = settings: human, THP1 cells
Description: Selectivity index, ratio of IC50 for human THP1 cells to IC50 for Mycobacterium tuberculosis H37Rv under aerobic condition

in vitro [10] = settings: human, Caco-2
Description: Apparent permeability of the compound across basolateral side to apical side in human Caco2 cells monolayer at 10 uM after 2 hrs by LC-MS/MS analysis

in vitro [11] = settings: human, Caco-2; remark: listed apart in the source
Description: Apparent permeability of the compound across apical side to basolateral side in human Caco2 cells monolayer at 10 uM after 2 hrs by LC-MS/MS analysis

[12] = tested on: Mycobacterium tuberculosis; assay: Potency index, ratio of compound MIC to metronidazole MIC for antitubercular activity against Mycobacterium tuberculosis H37Rv ATCC 27294 under low oxygen condition; assay type: functional
[13] = tested on: Mycobacterium tuberculosis; assay: Antitubercular activity against luxABCDE expressing Mycobacterium tuberculosis H37Rv infected in mouse J774 macrophages assessed as log reduction in bacterial colonies at 200 uM measured after 4 days under aerobic condition by luminescence assay; assay type: functional
[14] = tested on: Mycobacterium tuberculosis; assay: Antitubercular activity against luxABCDE expressing Mycobacterium tuberculosis H37Rv infected in mouse J774 macrophages assessed as log reduction in bacterial colonies at 20 uM measured after 4 days under aerobic condition by luminescence assay; assay type: functional

For `CC(O)(Cn1cnc([N+](=O)[O-])n1)c1ccc(-c2ccc(C#N)cc2)cc1` (stereo unspecified), the IC50 [1] was 55 µM, the IC90 [1] was 125 µM and the MIC [1] was > 200 µM. It also gave an IC50 (L6) of 86 µM, an MBC [2] of 100 µM (≈ 34.9 µg/mL) and an IC50 [3] of 73 µM. The IC90 [3] was 176 µM, the MIC [3] was > 200 µM and the IC50 (Vero) was 66 µM.
`O=C(Cn1cnc([N+](=O)[O-])n1)Nc1cccc(-c2ccccc2)c1` gave an IC50 (HepG2) of 46 µM, an IC50 [4] of 11 µM and an IC90 [4] of 12 µM. For the same molecule, the IC50 [1] was 27 µM, the IC90 [1] was 39 µM and the MIC [1] was 31 µM (≈ 10 µg/mL). For the same molecule, the IC50 (THP-1) was > 50 µM, the MBC [2] was 20 µM (≈ 6.47 µg/mL) and the fraction unbound at 4 h, 5 µM [5] was 0.028. For the same molecule, the half-life at 1 µM [6] was 1.32 h, the IC50 [3] was 30 µM and the IC90 [3] was 46 µM. The MIC [3] was 73 µM (≈ 23.6 µg/mL).
For `O=C(CCCN1CCC(O)(c2ccc(Cl)cc2)CC1)c1ccc(F)cc1` [HALOPERIDOL], the solubility [7] was “Insoluble”.
With `O=C(Cn1cnc([N+](=O)[O-])n1)N1CCN(Cc2ccc(Cl)c(Cl)c2)CC1` the IC50 (HepG2) was 77 µM, the half-life at 1 µM [8] was 1.2 h and the selectivity ratio (in vitro [9]) was > 10. It also gave a Papp B→A at 2 h, 10 µM (in vitro [10]) of 14.8 ×10⁻⁶ cm/s, an IC50 [4] of 4 µM and an IC90 [4] of 6.7 µM. The IC50 [1] was 5.9 µM, the IC90 [1] was 7.7 µM and the MIC [1] was 6.6 µM (≈ 2.63 µg/mL). For the same molecule, the IC50 (THP-1) was > 50 µM, the Papp A→B at 2 h, 10 µM (in vitro [11]) was 16.3 ×10⁻⁶ cm/s and the MBC [2] was 5.6 µM (≈ 2.24 µg/mL). For the same molecule, the fraction unbound at 4 h, 5 µM [5] was 0.076, the half-life at 1 µM [6] was 2.9 h and the IC50 [3] was 17 µM. It also gave an IC90 [3] of 47 µM and an MIC [3] of 140 µM (≈ 55.9 µg/mL).
For `O=C(Cn1cnc([N+](=O)[O-])n1)N1CCN(Cc2ccc(C(F)(F)F)cc2)CC1`, the IC50 (HepG2) was > 100 µM, the half-life at 1 µM [8] was > 3 h and the IC50 [4] was 13 µM. It also gave an IC90 [4] of 14 µM, an IC50 [1] of 25 µM and an IC90 [1] of 28 µM. The MIC [1] was 27 µM (≈ 10.8 µg/mL), the IC50 (THP-1) was > 50 µM and the MBC [2] was 20 µM (≈ 7.97 µg/mL). The fraction unbound at 4 h, 5 µM [5] was 0.179, the half-life at 1 µM [6] was > 3 h and the IC50 [3] was 62 µM. The IC90 [3] was 100 µM and the MIC [3] was 170 µM (≈ 67.7 µg/mL).
`O=C(Cn1cnc([N+](=O)[O-])n1)Nc1cc(-c2ccc(Cl)cc2)no1` showed an IC50 [1] of 96 µM, an IC90 [1] of 140 µM and an MIC [1] of 200 µM (≈ 69.7 µg/mL).
`CO[C@H]1/C=C/O[C@@]2(C)Oc3c(C)c(O)c4c(O)c(c(/C=N/N5CCN(C)CC5)c(O)c4c3C2=O)NC(=O)/C(C)=C\C=C\[C@H](C)[C@H](O)[C@@H](C)[C@@H](O)[C@@H](C)[C@H](OC(C)=O)[C@@H]1C` [RIFAMPIN] showed an IC50 [1] of 0.0046 to 0.0061 µM, an IC90 [1] of 0.0049 to 0.014 µM and an MIC [1] of 0.015 to 0.033 µM (≈ 0.0123 to 0.0272 µg/mL). The IC50 [3] was 0.00072 to 0.015 µM, the IC90 [3] was 0.0037 to 0.049 µM and the MIC [3] was 0.022 to 0.18 µM (≈ 0.0181 to 0.148 µg/mL).
With `Cc1ncc([N+](=O)[O-])n1CCO` [METRONIDAZOLE] the IC50 [1] was > 200 µM, the IC90 [1] was > 200 µM and the MIC [1] was > 200 µM. The IC50 [3] was 14 to 36 µM, the IC90 [3] was 33 to 82 µM and the MIC [3] was 88 to 200 µM (≈ 15.1 to 34.2 µg/mL).
Molecule `O=C(CCn1cnc([N+](=O)[O-])n1)Nc1ccc(Oc2ccc(Cl)cc2)cc1` has an IC50 [4] of 3.4 µM, an IC90 [4] of 10 µM and an IC50 [1] of 15 to 22 µM. For the same molecule, the IC90 [1] was 22 to 24 µM, the MIC [1] was 24 to 26 µM (≈ 9.31 to 10.1 µg/mL) and the Activity ([1]; TDE = time-dependent effect) was “Tde”. It also gave an IC50 (THP-1) of 14 µM, an IC50 (L6) of 17 µM and an MBC [2] of 20 µM (≈ 7.76 µg/mL). The Activity ([2]; TDE = time-dependent effect) was “Tde”, the IC50 [3] was 25 µM and the IC90 [3] was 27 µM. For the same molecule, the MIC [3] was 30 µM (≈ 11.6 µg/mL) and the Ratio [12] was 6 - 9.
`O=C(Cn1cnc([N+](=O)[O-])n1)Nc1ccc(Oc2ccc(Cl)cc2)cc1` showed an IC50 [1] of 51 µM, an IC90 [1] of 100 µM and an MIC [1] of 94 µM (≈ 35.1 µg/mL). It also gave an MBC [2] of 100 µM (≈ 37.4 µg/mL), an IC50 [3] of 13 µM and an IC90 [3] of 94 µM. The MIC [3] was > 200 µM, the IC50 (Vero) was 19 µM and the “log(activity)” value [13] was 2.6.
`CN[C@@H]1C[C@H]2O[C@@](C)([C@@H]1OC)n1c3ccccc3c3c4c(c5c6ccccc6n2c5c31)C(=O)NC4` [STAUROSPORINE] gave an IC50 (HepG2) of 0.018 µM.
Molecule `O=C(Cn1ccnc1[N+](=O)[O-])Nc1ccc(Oc2ccccc2)cc1` has an IC50 [1] of 60 µM, an IC90 [1] of 90 µM and an MIC [1] of 98 µM (≈ 33.2 µg/mL). It also gave an IC50 (L6) of 63 µM, an MBC [2] of 100 µM (≈ 33.8 µg/mL) and an IC50 [3] of 14 µM. The IC90 [3] was 71 µM, the MIC [3] was > 200 µM and the IC50 (Vero) was 98 µM. For the same molecule, the “log(activity)” value [13] was 2.7.
Work on `O=C(Cn1cnc([N+](=O)[O-])n1)Nc1ccc(Oc2ccccc2)cc1` yielded an IC50 [1] of 65 µM, an IC90 [1] of 100 µM and an MIC [1] of 105 µM (≈ 35.6 µg/mL). For the same molecule, the MBC [2] was 200 µM (≈ 67.9 µg/mL), the IC50 [3] was 8.9 µM and the IC90 [3] was 92 µM. For the same molecule, the MIC [3] was > 200 µM, the IC50 (Vero) was 39 µM and the “log(activity)” value [13] was 2.7.
For `O=C(Cn1cnc([N+](=O)[O-])n1)Nc1nc(-c2ccc(Cl)cc2)cs1`, the IC50 [1] was 34.2 µM, the IC90 [1] was 34.9 µM and the MIC [1] was 34.9 µM (≈ 12.7 µg/mL). The solubility [7] was “Insoluble”.
For `O=C(Cn1ccnc1[N+](=O)[O-])Nc1ccc(Oc2ccc(Cl)cc2)cc1`, the “log(activity)” value [14] was 2.6, the IC50 [1] was 81 µM and the IC90 [1] was > 200 µM. For the same molecule, the MIC [1] was > 200 µM, the MBC [2] was 100 µM (≈ 37.3 µg/mL) and the IC50 [3] was 17 µM. The IC90 [3] was 24 µM, the MIC [3] was 35 µM (≈ 13 µg/mL) and the IC50 (Vero) was 30 µM. For the same molecule, the Ratio [12] was 6 - 9.
